In ChEMBL document CHEMBL2074024, “Reversal of P-glycoprotein-mediated multidrug resistance by diallyl sulfide in K562 leukemic cells and in mouse liver” (Carcinogenesis, 2004) one finds Activity data, which are given here for 1 compound.

The target of data set [1] is T1, ATP-dependent translocase ABCB1 (Homo sapiens, UniProt P08183). Nature of the data set: TP_TRANSPORTER: drug resistance (vinblastine) in K562/R10 cells. The class given is functional, cell-based.
Data set [2] concerns the target T1, ATP-dependent translocase ABCB1. The experiment in a line: TP_TRANSPORTER: increase in Doxorubicin intracellular accumulation (Doxorubicin: […]) in K562/R10 cells. The class given is functional, cell-based.

Each structure is given as a SMILES string.

T1 sequence (P08183 whole entry): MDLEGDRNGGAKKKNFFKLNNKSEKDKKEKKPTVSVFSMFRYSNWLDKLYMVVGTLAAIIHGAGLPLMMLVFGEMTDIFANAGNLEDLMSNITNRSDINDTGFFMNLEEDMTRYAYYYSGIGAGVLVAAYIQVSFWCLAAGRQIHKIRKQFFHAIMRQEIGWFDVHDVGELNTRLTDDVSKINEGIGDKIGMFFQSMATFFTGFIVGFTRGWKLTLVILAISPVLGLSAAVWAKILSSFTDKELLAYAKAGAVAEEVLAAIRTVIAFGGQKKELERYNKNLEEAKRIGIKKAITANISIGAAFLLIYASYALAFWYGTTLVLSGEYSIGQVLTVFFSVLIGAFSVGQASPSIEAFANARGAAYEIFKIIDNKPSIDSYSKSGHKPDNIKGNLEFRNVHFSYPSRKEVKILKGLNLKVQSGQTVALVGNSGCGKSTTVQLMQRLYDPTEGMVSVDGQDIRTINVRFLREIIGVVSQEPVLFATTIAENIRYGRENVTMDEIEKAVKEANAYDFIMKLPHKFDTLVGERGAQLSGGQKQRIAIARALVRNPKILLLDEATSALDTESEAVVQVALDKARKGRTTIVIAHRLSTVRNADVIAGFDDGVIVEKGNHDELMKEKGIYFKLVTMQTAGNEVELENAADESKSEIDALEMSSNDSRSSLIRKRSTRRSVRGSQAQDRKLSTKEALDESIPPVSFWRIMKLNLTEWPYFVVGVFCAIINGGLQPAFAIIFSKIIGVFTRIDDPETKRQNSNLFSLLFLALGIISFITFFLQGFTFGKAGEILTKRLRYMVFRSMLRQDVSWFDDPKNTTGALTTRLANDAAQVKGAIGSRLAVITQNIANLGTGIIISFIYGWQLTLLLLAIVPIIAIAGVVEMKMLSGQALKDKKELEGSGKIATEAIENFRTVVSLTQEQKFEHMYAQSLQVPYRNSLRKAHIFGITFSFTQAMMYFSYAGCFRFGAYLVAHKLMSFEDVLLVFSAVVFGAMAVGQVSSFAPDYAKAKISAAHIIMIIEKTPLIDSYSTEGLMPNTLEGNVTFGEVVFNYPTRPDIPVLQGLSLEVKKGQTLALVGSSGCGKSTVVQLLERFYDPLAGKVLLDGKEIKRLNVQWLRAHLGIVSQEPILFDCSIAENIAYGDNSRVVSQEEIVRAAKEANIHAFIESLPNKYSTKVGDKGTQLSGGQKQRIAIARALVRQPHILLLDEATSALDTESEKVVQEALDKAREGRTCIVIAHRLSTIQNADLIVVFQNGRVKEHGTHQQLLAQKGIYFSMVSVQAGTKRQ

For `C=CCSCC=C` [DIALLYL SULFIDE], the Activity result in data set [1] and in data set [2] was “inhibitor [+]” in each case.
